Key:
HepG2 cells [1] = assay: Uptake of 125I-LDL by HepG2 cells; assay type: cell-based, human; conditions: 1.0 µmol/L
Source text: Cell cultures. The established human hepatoma cell line (HepG2) was obtained from American Type Culture Collection (Rockville, MD). Eagle's minimum essential medium (MEM), fetal calf serum, trypsin-EDTA (1x), penicillin (10^5 U/L), streptomycin ([…]), tricine buffer (1 mmol/L, pH 7.4) and non-essential amino acid solutions (100x) were from GIBCO (Madison, WI). Petri dishes were from COSTAR (Cambridge, MA). Filters were from Millipore (Bedford, MA). The Protein Coomassie Plus Protein Assay kit was purchased from Pierce (Rockford, IL, USA). ^125Iodine, carrier free, in 100 mmol/L NaOH, was from Perkin Elmer Life Sciences (Boston, MA). Sephadex G25 columns (PD10) were from Pharmacia Biotech (Uppsala, Sweden). LDH and MTT kit were from Sigma Diagnostics (Milano-Italy). All other chemicals were of analytical grade from Merck (Darmstadt, Germany). […] Cell enzyme leakage was determined by measuring lactate dehydrogenase (LDH) activity, using a kinetic (LDH/LD) diagnostic kit (Sigma Diagnostics). […]
Uptake and degradation of ^125I-LDL. […] Specific uptake (binding + internalization) and degradation of ^l25I-LDL were evaluated as previously reported. […] Differences in cell uptake and degradation of LDL after cell incubation with tα' at different concentrations were determined by ANOVA followed by Dunnett's test. Values are expressed as means ± SD; P values < 0.05 were considered as statistically significant.

HepG2 cells [2] = assay: Degradation of 125I-LDL by HepG2 cells; assay type: cell-based, human; conditions: 1.0 µmol/L
Experimental: Cell cultures. […] Cells were grown in monolayers in 90 mm-diameter Petri dishes, and maintained at 37°C in a humidified atmosphere of 95% air, 5% CO2 in MEM supplemented with 10% fetal calf serum (FCS), non essential amino acid solution (1%, v/v), penicillin (10^5 U/L), streptomycin (0.1 g/L), tricine buffer (20 mmol/L, pH 7.4), NaHCO3 (24 mmol/L) and sodium pyruvate (0.11 g/L). For experiments designed to evaluate the LDL receptor modulation, cells were seeded in 35 mm plastic dishes (3-5 x 10^5 cells) and used just before reaching confluence. In all cell culture experiments, the medium was changed every 2-3 days. In order to assess cell viability, culture media from cells exposed to tα' at different concentrations were tested by methyltetrazolium salts (MTT) assay, essentially as described in ref. 9. Cell enzyme leakage was determined by measuring lactate dehydrogenase (LDH) activity, using a kinetic (LDH/LD) diagnostic kit (Sigma Diagnostics). […]
Uptake and degradation of ^125I-LDL. […] Specific uptake (binding + internalization) and degradation of ^l25I-LDL were evaluated as previously reported [2]. […] Differences in cell uptake and degradation of LDL after cell incubation with tα' at different concentrations were determined by ANOVA followed by Dunnett's test. Values are expressed as means ± SD; P values < 0.05 were considered as statistically significant.

LDL-R = conditions: Hep G2 cells exposed to the peptide at 100 µM; cited from earlier work
[3] = 24 h preincubation in MEM with 5% LPDS, then 125I-LDL 7.5 mg/L for 5 h, mean ± SD

CCC(C)(C)C(=O)O[C@H]1C[C@@H](C)C=C2C=C[C@H](C)[C@H](CC[C@@H]3C[C@@H](O)CC(=O)O3)[C@H]21 [Simvastatin]
Uptake (HepG2 cells [1]; [3]): 250 ± 11.2 ng125I-LDL/ mg cell proteins
Uptake (HepG2 cells [1]; relative to LPDS = 100): 278%
Degradation (HepG2 cells [2]; [3]): 195 ± 7.9 ng125I-LDL/ mg cell protein
Degradation (HepG2 cells [2]; relative to LPDS = 100): 250%

FVVNATSN [LDL-R transcription stimulating peptide deriving from the 7S globulin β chain, from a soybean hydrolysate and by chemical synthesis]
increased LDL-R transcription (LDL-R): +148%

— patent publication EP2264054A1, “Cloning, yeast expression, purification and biological activity of a truncated form of the soybean 7S globulin alfa ' subunit involved in Hep G2 cell cholesterol homeostasis” (Indena S.p.A., priority 2009, dated 2010)
